“And” between values parts separate entries of the source, which are not always exact repeats. Identical values can stand only once. Inconclusive results and toxic doses are left out. Rule for the calls: active = survival T/C of 150% or more; inactive = T/C below 125% in these data.
System: CD2F1 mice, L1210 leukemia ip, survival T/C
Assay: NCI In Vivo Anticancer Drug Screen. Data for tumor model L1210 Leukemia (intraperitoneal) in CD2F1 (CDF1) mice
Settings: higher = longer survival
In short: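 Tumor-bearing mice (transplanted tumor) were split into treated and vehicle control groups, and the measured endpoint of each treated group was divided by that of its vehicle controls.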

[1] = endpoint: mean survival time, dose: 100.0 mg/kg/injection, schedule: Q01DX009 (ip), vehicle: saline with Tween-80
[2] = endpoint: mean survival time, dose: 200.0 mg/kg/injection, schedule: Q01DX009 (ip), vehicle: saline with Tween-80
[3] = endpoint: mean survival time, dose: 12.5 mg/kg/injection, schedule: Q01DX009 (ip), vehicle: saline with Tween-80
[4] = endpoint: mean survival time, dose: 25.0 mg/kg/injection, schedule: Q01DX009 (ip), vehicle: saline with Tween-80
[5] = endpoint: mean survival time, dose: 50.0 mg/kg/injection, schedule: Q01DX009 (ip), vehicle: saline with Tween-80

Measured: T/C

COC(=O)NCCNC(=O)OC
inactive: endpoint: mean survival time, dose: 100.0 mg/kg/injection, schedule: Q01DX001 (ip), vehicle: saline 98 % of control | endpoint: mean survival time, dose: 200.0 mg/kg/injection, schedule: Q01DX001 (ip), vehicle: saline 98 % of control | endpoint: mean survival time, dose: 400.0 mg/kg/injection, schedule: Q01DX001 (ip), vehicle: saline 101 % of control

CCCCNc1ccc2nnc(C)n2n1
inactive: endpoint: median survival time, dose: 50.0 mg/kg/injection, schedule: Q01DX005 (ip), vehicle: DMSO 100 % of control and 101 % of control | endpoint: median survival time, dose: 100.0 mg/kg/injection, schedule: Q01DX005 (ip), vehicle: DMSO 97 % of control and 100 % of control | endpoint: median survival time, dose: 200.0 mg/kg/injection, schedule: Q01DX005 (ip), vehicle: DMSO 104 % of control

C1=NOC2c3ccc4ccccc4c3CCC12 (centres undefined)
inactive: endpoint: mean survival time, dose: 100.0 mg/kg/injection, schedule: Q04DX003 (ip), vehicle: Klucel (hydroxypropylcellulose) (HPC) 100 % of control | endpoint: mean survival time, dose: 200.0 mg/kg/injection, schedule: Q04DX003 (ip), vehicle: Klucel (hydroxypropylcellulose) (HPC) 101 % of control | endpoint: mean survival time, dose: 400.0 mg/kg/injection, schedule: Q04DX003 (ip), vehicle: Klucel (hydroxypropylcellulose) (HPC) 107 % of control

COC(=O)C1(C)CCCC2(C)C1CCC13OC1C(C(C)C)=CCC23 (centres undefined)
inactive: [1] 104 % of control | [2] 97 % of control | endpoint: mean survival time, dose: 400.0 mg/kg/injection, schedule: Q01DX009 (ip), vehicle: saline with Tween-80 101 % of control

CCCCNC(C)(C)C(SS)c1cccs1 (centres undefined)
inactive: endpoint: mean survival time, dose: 66.0 mg/kg/injection, schedule: Q01DX009 (ip), vehicle: other 101 % of control | endpoint: mean survival time, dose: 150.0 mg/kg/injection, schedule: Q01DX009 (ip), vehicle: other 108 % of control | endpoint: mean survival time, dose: 200.0 mg/kg/injection, schedule: Q01DX009 (ip), vehicle: other 94 % of control | endpoint: mean survival time, dose: 400.0 mg/kg/injection, schedule: Q01DX009 (ip), vehicle: other 92 % of control

O=c1c2ccccc2nc2c3ccccc3nnn12
inactive: endpoint: mean survival time, dose: 50.0 mg/kg/injection, schedule: Q04DX002 (ip), vehicle: saline with Tween-80 98 % of control | endpoint: mean survival time, dose: 100.0 mg/kg/injection, schedule: Q04DX002 (ip), vehicle: saline with Tween-80 120 % of control | endpoint: mean survival time, dose: 200.0 mg/kg/injection, schedule: Q04DX002 (ip), vehicle: saline with Tween-80 91 % of control

CS(=O)(=O)OC1CC(n2ccc(=O)[nH]c2=O)OC1COC(c1ccccc1)(c1ccccc1)c1ccccc1 (centres undefined)
inactive: endpoint: median survival time, dose: 12.5 mg/kg/injection, schedule: Q01DX005 (ip), vehicle: saline with Tween-80 98 % of control and 103 % of control | endpoint: median survival time, dose: 25.0 mg/kg/injection, schedule: Q01DX005 (ip), vehicle: saline with Tween-80 100 % of control and 96 % of control | endpoint: median survival time, dose: 50.0 mg/kg/injection, schedule: Q01DX005 (ip), vehicle: saline with Tween-80 108 % of control and 94 % of control | endpoint: median survival time, dose: 100.0 mg/kg/injection, schedule: Q01DX005 (ip), vehicle: saline with Tween-80 100 % of control and 94 % of control | endpoint: median survival time, dose: 200.0 mg/kg/injection, schedule: Q01DX005 (ip), vehicle: saline with Tween-80 98 % of control and 101 % of control

CN(C)C=Nc1cccc2[nH]c3ccccc3c12
inactive: [3] 92 % of control | [4] 104 % of control | [5] 97 % of control | endpoint: mean survival time, dose: 100.0 mg/kg/injection, schedule: Q01DX001 (ip), vehicle: saline with Tween-80 92 % of control | [1] 103 % of control | endpoint: mean survival time, dose: 200.0 mg/kg/injection, schedule: Q01DX001 (ip), vehicle: saline with Tween-80 101 % of control

O/N=C/c1ccc[nH]1
inactive: endpoint: mean survival time, dose: 100.0 mg/kg/injection, schedule: Q04DX003 (ip), vehicle: saline with Tween-80 96 % of control | endpoint: mean survival time, dose: 200.0 mg/kg/injection, schedule: Q04DX003 (ip), vehicle: saline with Tween-80 96 % of control | endpoint: mean survival time, dose: 400.0 mg/kg/injection, schedule: Q04DX003 (ip), vehicle: saline with Tween-80 96 % of control

Oc1ccc(I)c2cccnc12
inactive: [3] 98 % of control | [4] 98 % of control | endpoint: mean survival time, dose: 45.0 mg/kg/injection, schedule: Q01DX009 (ip), vehicle: saline 97 % of control | [5] 98 % of control | endpoint: mean survival time, dose: 90.0 mg/kg/injection, schedule: Q01DX009 (ip), vehicle: saline 108 % of control | [1] 98 % of control | endpoint: mean survival time, dose: 180.0 mg/kg/injection, schedule: Q01DX009 (ip), vehicle: saline 112 % of control | [2] 104 % of control

CCN1C2CCC1CC(O)C2 (centres undefined)
inactive: endpoint: mean survival time, dose: 100.0 mg/kg/injection, schedule: Q04DX002 (ip), vehicle: saline 94 % of control | endpoint: mean survival time, dose: 200.0 mg/kg/injection, schedule: Q04DX002 (ip), vehicle: saline 94 % of control | endpoint: mean survival time, dose: 400.0 mg/kg/injection, schedule: Q04DX002 (ip), vehicle: saline 105 % of control

CN(C)CC(=O)c1ccc(O)c(O)c1
inactive: endpoint: mean survival time, dose: 16.0 mg/kg/injection, schedule: Q03HX008 (ip), vehicle: saline 95 % of control | endpoint: mean survival time, dose: 16.0 mg/kg/injection, schedule: Q03HX016 (ip), vehicle: saline 97 % of control | endpoint: mean survival time, dose: 32.0 mg/kg/injection, schedule: Q03HX008 (ip), vehicle: saline 96 % of control | endpoint: mean survival time, dose: 32.0 mg/kg/injection, schedule: Q03HX016 (ip), vehicle: saline 106 % of control | endpoint: mean survival time, dose: 64.0 mg/kg/injection, schedule: Q01DX009 (sc), vehicle: saline 86 % of control | endpoint: mean survival time, dose: 64.0 mg/kg/injection, schedule: Q03HX008 (ip), vehicle: saline 110 % of control | endpoint: mean survival time, dose: 64.0 mg/kg/injection, schedule: Q03HX016 (ip), vehicle: saline 111 % of control | endpoint: mean survival time, dose: 64.0 mg/kg/injection, schedule: Q04DX003 (ip), vehicle: saline 101 % of control | endpoint: mean survival time, dose: 128.0 mg/kg/injection, schedule: Q01DX001 (oral), vehicle: saline 98 % of control | endpoint: mean survival time, dose: 128.0 mg/kg/injection, schedule: Q01DX001 (sc), vehicle: saline 98 % of control | endpoint: mean survival time, dose: 128.0 mg/kg/injection, schedule: Q01DX009 (oral), vehicle: saline 93 % of control | endpoint: mean survival time, dose: 128.0 mg/kg/injection, schedule: Q01DX009 (sc), vehicle: saline 86 % of control | endpoint: mean survival time, dose: 128.0 mg/kg/injection, schedule: Q03HX008 (ip), vehicle: saline 118 % of control | endpoint: mean survival time, dose: 128.0 mg/kg/injection, schedule: Q03HX016 (ip), vehicle: saline 122 % of control | endpoint: mean survival time, dose: 128.0 mg/kg/injection, schedule: Q04DX003 (ip), vehicle: saline 107 % of control | endpoint: mean survival time, dose: 128.0 mg/kg/injection, schedule: Q08DX002 (ip), vehicle: saline 105 % of control | endpoint: mean survival time, dose: 256.0 mg/kg/injection, schedule: Q01DX001 (oral), vehicle: saline 101 % of control | endpoint: mean survival time, dose: 256.0 mg/kg/injection, schedule: Q01DX001 (sc), vehicle: saline 96 % of control | endpoint: mean survival time, dose: 256.0 mg/kg/injection, schedule: Q01DX009 (oral), vehicle: saline 92 % of control | endpoint: mean survival time, dose: 256.0 mg/kg/injection, schedule: Q01DX009 (sc), vehicle: saline 86 % of control | endpoint: mean survival time, dose: 256.0 mg/kg/injection, schedule: Q04DX003 (ip), vehicle: saline 107 % of control | endpoint: mean survival time, dose: 256.0 mg/kg/injection, schedule: Q08DX002 (ip), vehicle: saline 103 % of control | endpoint: mean survival time, dose: 512.0 mg/kg/injection, schedule: Q01DX001 (oral), vehicle: saline 98 % of control | endpoint: mean survival time, dose: 512.0 mg/kg/injection, schedule: Q01DX001 (sc), vehicle: saline 95 % of control | endpoint: mean survival time, dose: 512.0 mg/kg/injection, schedule: Q01DX009 (oral), vehicle: saline 91 % of control | endpoint: mean survival time, dose: 512.0 mg/kg/injection, schedule: Q01DX009 (sc), vehicle: saline 86 % of control | endpoint: mean survival time, dose: 512.0 mg/kg/injection, schedule: Q04DX003 (ip), vehicle: saline 107 % of control | endpoint: mean survival time, dose: 512.0 mg/kg/injection, schedule: Q08DX002 (ip), vehicle: saline 105 % of control | endpoint: mean survival time, dose: 1024.0 mg/kg/injection, schedule: Q01DX001 (oral), vehicle: saline 96 % of control | endpoint: mean survival time, dose: 1024.0 mg/kg/injection, schedule: Q01DX001 (sc), vehicle: saline 107 % of control | endpoint: mean survival time, dose: 1024.0 mg/kg/injection, schedule: Q01DX009 (oral), vehicle: saline 93 % of control | endpoint: mean survival time, dose: 1024.0 mg/kg/injection, schedule: Q08DX002 (ip), vehicle: saline 110 % of control

O=C1CN(Cl)C(=O)CN1Cl
inactive: endpoint: mean survival time, dose: 37.5 mg/kg/injection, schedule: Q04DX002 (ip), vehicle: saline with Tween-80 98 % of control | endpoint: mean survival time, dose: 75.0 mg/kg/injection, schedule: Q04DX002 (ip), vehicle: saline with Tween-80 98 % of control | endpoint: mean survival time, dose: 150.0 mg/kg/injection, schedule: Q04DX002 (ip), vehicle: saline with Tween-80 102 % of control
